This is an account of results in ChEMBL document CHEMBL3877276, “Design, synthesis, and biological evaluation of cyclic-indole derivatives as anti-tumor agents via the inhibition of tubulin polymerization” (Eur J Med Chem, 2017).

SMILES strings stand for the structures.

One assay is described as follows: Antiproliferative activity against human LoVo cells measured after 48 hrs by MTT assay. Format: functional, cell-based.
Conditions: not given
For orientation: Formazan colour is commonly taken as a measure of viable cells.
As usually defined, the IC50 is the concentration that inhibits the measured activity by half. Compound `CCn1ccc2c3c(ccc21)C(c1cc(OC)c(OC)c(OC)c1)=CCCC3` came in with an IC50 of 39 nM.
Same read-out and setting: the figure for `COc1cc(C2=CCCCc3c2ccc2[nH]cc(C=O)c32)cc(OC)c1OC` is 1130 nM; for `COc1cc(C2=CCc3c2ccc2c3ccn2C)cc(OC)c1OC` it is 297 nM.

The nature of a further assay: Antiproliferative activity against human A549 cells measured after 48 hrs by MTT assay. The settings on record: A549, 48 h. The format is functional, cell-based.
On to `CCn1ccc2c3c(ccc21)C(c1cc(OC)c(OC)c(OC)c1)=CCCC3`, for which the IC50 was 56 nM.
On to `COc1cc(C2=CCCCc3c2ccc2[nH]cc(C=O)c32)cc(OC)c1OC`, for which the IC50 was 470 nM.
On the same count and under the same terms, the figure for `COc1cc(C2=CCc3c2ccc2c3ccn2C)cc(OC)c1OC` is 149 nM.

A further assay is described as follows: Antiproliferative activity against human Bel7402 cells measured after 48 hrs by MTT assay. Format: functional, cell-based. As to conditions: Bel-7402, 48 h.
The compound `CCn1ccc2c3c(ccc21)C(c1cc(OC)c(OC)c(OC)c1)=CCCC3` gave an IC50 of 66 nM.
The same measure, in the same setting: the figure for `COc1cc(C2=CCCCc3c2ccc2[nH]cc(C=O)c32)cc(OC)c1OC` is 1260 nM.
The same measure, in the same setting: to `COc1cc(C2=CCc3c2ccc2c3ccn2C)cc(OC)c1OC` belongs 561 nM.

The next assay in a line: Antiproliferative activity against human MCF7 cells measured after 48 hrs by MTT assay. The format is functional, cell-based. The settings on record: MCF7, 48 h.
The compound `CCn1ccc2c3c(ccc21)C(c1cc(OC)c(OC)c(OC)c1)=CCCC3` registered an IC50 of 79 nM.
Still for that read-out and setting: the figure for `COc1cc(C2=CCCCc3c2ccc2[nH]cc(C=O)c32)cc(OC)c1OC` is 2060 nM; for `COc1cc(C2=CCc3c2ccc2c3ccn2C)cc(OC)c1OC` it is 449 nM.

Another assay can be described thus: Antiproliferative activity against human PC3 cells measured after 48 hrs by MTT assay. The format is functional, cell-based. As to conditions: PC-3, 48 h.
`CCn1ccc2c3c(ccc21)C(c1cc(OC)c(OC)c(OC)c1)=CCCC3`: half-maximal inhibition (IC50) was put at 85 nM.
Still for that read-out and setting: to `COc1cc(C2=CCCCc3c2ccc2[nH]cc(C=O)c32)cc(OC)c1OC` belongs 950 nM; to `COc1cc(C2=CCc3c2ccc2c3ccn2C)cc(OC)c1OC`, 412 nM.

The next assay in a line: Antiproliferative activity against human HeLa cells measured after 48 hrs by MTT assay. The format is functional, cell-based.
Conditions: not given
For the compound `CCn1ccc2c3c(ccc21)C(c1cc(OC)c(OC)c(OC)c1)=CCCC3`, half-maximal inhibition (IC50) required 61 nM.
`COc1cc(C2=CCCCc3c2ccc2[nH]cc(C=O)c32)cc(OC)c1OC` displayed an IC50 of 860 nM.
Still for that read-out and setting: to `COc1cc(C2=CCc3c2ccc2c3ccn2C)cc(OC)c1OC` belongs 326 nM.

A further assay is described as follows: Antiproliferative activity against human A2780 cells measured after 48 hrs by MTT assay. The format is functional, cell-based. As to conditions: A2780, 48 h.
`CCn1ccc2c3c(ccc21)C(c1cc(OC)c(OC)c(OC)c1)=CCCC3`: half-maximal inhibition (IC50) required 32 nM.
Same read-out and setting: to `COc1cc(C2=CCCCc3c2ccc2[nH]cc(C=O)c32)cc(OC)c1OC` belongs 1020 nM.
Consider `COc1cc(C2=CCc3c2ccc2c3ccn2C)cc(OC)c1OC`, for which the IC50 is 186 nM.
